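A five-concentration, 48-hour dose response in 96-well plates underlies each endpoint, interpolated linearly between surrounding concentrations. GI50: concentration for 50% inhibition of growth. The concentration for full growth arrest is given as TGI.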

What all share (assay): inhibition of tumour cell growth, NCI panel, 48 h
The subject of experiment [1] is 786-0 renal.
In experiment [2] the test system is HOP-62 NSCLC.
Experiment [3] has as its system HOP-92 NSCLC.
In experiment [4] the test system is K-562 leukemia.
The test system of experiment [5] is OVCAR-5 ovarian.
The test system of experiment [6] is SF-268 CNS.
The test system of experiment [7] is SF-539 CNS.
Experiment [8] relates to SK-MEL-5 melanoma.
The subject of experiment [9] is SNB-19 CNS.
For experiment [10], the system named is U251 CNS.

`CCCCOC(=O)c1ccc(N)cc1`: the GI50 in experiment [1] was 32.4 µM; in experiment [2], above 100 µM; in [3], 95.1 µM; in experiment [4] it was 6.66 µM; in experiment [5], 34.8 µM; in experiment [6], 71.1 µM. In addition, the GI50 is 30 µM in [7], 27.8 µM in [8], 75.2 µM in experiment [9] and above 100 µM in [10]. Also, the TGI in experiment [1], in experiment [2], in [3], in experiment [4], in [5] and in experiment [6] was above 100 µM in each case. The TGI in experiment [7], in [8], in experiment [9] and in [10] was above 100 µM throughout.

For `COc1cc2c(c(OC)c1OC)-c1ccc(O)cc1[C@@H](NC(C)=O)CC2`, the GI50 is 0.0779 µM in [1]; 0.051 µM in [2]; 0.0376 µM in experiment [4]; 0.215 µM in [5]; 0.0641 µM in experiment [6]; 0.0261 µM in [7]. Besides, the GI50 is 0.0412 µM in [8], 0.0554 µM in experiment [9] and 0.0465 µM in [10]. For the same compound, the TGI was above 100 µM in experiment [1]; above 100 µM in experiment [2]; above 100 µM in [3]; above 100 µM in experiment [4]; above 100 µM in experiment [5]; above 29.1 µM in experiment [6]. Moreover, the TGI in experiment [8] was 0.195 µM; in experiment [9], above 100 µM; in [10] it was above 100 µM.

As to `CC1=C2CC(C)(C)/C=C\C(=O)/C(C)=C\C3=C[C@H](C)C[C@]3(O2)C1=O`, the TGI in experiment [1] was determined as 1.25 µM; in experiment [2] it was 15.9 µM; in [3] it was 2.88 µM; in experiment [4] it was 14.4 µM; in experiment [5], 3.37 µM; in experiment [6] it was 18.4 µM. For the same compound, the TGI in [7] was 3.09 µM; in experiment [8] it was 8.06 µM; in experiment [9], 37.2 µM; in experiment [10] it was 9.98 µM.

Regarding `COc1ccc2c(c1)c(-c1nc(-c3c[nH]c4ncccc34)cs1)cn2CCCN1CCCCC1`, the GI50 was 1.61 µM in [1]; 1.61 µM in experiment [2]; 1.5 µM in [3]; 1.88 µM in experiment [4]; 1.73 µM in experiment [5]; 1.52 µM in experiment [6]. The GI50 in experiment [7] was 1.63 µM; in [10], 1.78 µM. The TGI in [1] is 3.06 µM; in experiment [2], 3.2 µM; in experiment [3] it was 3.1 µM; in experiment [4] it was 4.16 µM; in experiment [5], 3.8 µM; in [6] it was 3.17 µM. Besides, the TGI amounted to 3.07 µM in [7] and 3.21 µM in experiment [10].

With `O=C1C(=C(C(F)(F)Cl)C(F)(F)Cl)C2CCC1C2` (configuration not stated), the TGI was 3.64 µM in [1]; above 10 µM in [2]; 6.42 µM in [3]; above 10 µM in [4]; above 10 µM in experiment [5]; above 6.62 µM in [6]. Besides, the TGI was above 6.2 µM in experiment [7], 3.11 µM in [8], above 10 µM in [9] and above 10 µM in experiment [10].

Turning to `COC(=O)c1ccc2c(c1)C(=O)c1c-2n(CCCCl)c(=O)c2cc([N+](=O)[O-])ccc12`, the GI50 is 63.5 µM in [1]; 43.3 µM in experiment [2]; 23.6 µM in [3]; 59 µM in experiment [4]; above 100 µM in experiment [5]; 42.2 µM in experiment [6]. Further, the GI50 in experiment [7] is 83.6 µM; in experiment [8] it was 85.7 µM; in [9], 56.6 µM; in experiment [10] it was 53.1 µM. The TGI in experiment [1] is above 100 µM; in experiment [2] it was above 100 µM; in experiment [3], 90.9 µM; in [4], above 100 µM; in [5] it was above 100 µM; in experiment [6] it was above 100 µM. The TGI in experiment [7], in [8], in experiment [9] and in experiment [10] was above 100 µM throughout.

As for `CO[C@H]1C=CO[C@@]2(C)Oc3c(C)c(O)c4c(O)c(c(CN5CCN(C)CC5)c(O)c4c3C2=O)NC(=O)/C(C)=C\C=C[C@H](C)[C@H](O)C(C)[C@@H](O)C(C)[C@H](OC(C)=O)[C@@H]1C` (some centres not stated), the TGI in [1], in experiment [2], in [3], in [4], in [5] and in experiment [6] was above 100 µM each time. The TGI in experiment [7] is above 68.5 µM; in experiment [8], 56.4 µM; in experiment [9], above 100 µM; in [10] it was above 100 µM.

Consider `NCCc1ccc(S(=O)(=O)F)cc1`, for which the GI50 in experiment [1] was 58.2 µM; in experiment [2], 57.8 µM; in [3] it was 32.9 µM; in experiment [4] it was 80.7 µM; in [5] it was 43.4 µM; in [6], above 100 µM. Further, the GI50 in experiment [7] is 14.8 µM; in [8], 59.1 µM; in [9], above 100 µM; in experiment [10] it was 95.1 µM. For the same compound, the TGI is above 100 µM in [1]; above 100 µM in experiment [2]; 96.2 µM in experiment [3]; above 100 µM in experiment [4]; above 100 µM in [5]; above 100 µM in [6]. Also, the TGI in [7] was 70 µM; in [8], above 100 µM; in experiment [9] it was above 100 µM; in experiment [10] it was above 100 µM.

For `CC(CC(=O)N1C(=O)C(C)(C)[C@@H](O)[C@H]1CC(C)C(Cl)(Cl)Cl)C(Cl)(Cl)Cl` (some centres not stated), the TGI in [1], in [2], in experiment [3], in experiment [4], in [6] and in [7] was above 100 µM in each case. Further, the TGI in [8], in experiment [9] and in experiment [10] was above 100 µM each time.

As for `COc1cc(C2CC(c3cccc(Nc4ccnc5cc(Cl)ccc45)c3)=NN2c2ccc(Cl)cc2)cc(OC)c1OC` (configuration not stated), the GI50 in [1] is 2.05 µM; in experiment [2] it was 1.39 µM; in experiment [3], 1.85 µM; in [4], 0.755 µM; in [5], 13.2 µM; in experiment [6] it was 8.16 µM. Also, the GI50 was 1.71 µM in experiment [7], 1.37 µM in [8] and 30.3 µM in [9]. Besides, the TGI in experiment [1] is 26.2 µM; in [2] it was 22.7 µM; in [3] it was 74.8 µM; in experiment [4], above 100 µM; in experiment [5], above 100 µM; in experiment [6], above 100 µM. The TGI in [7] was 4.87 µM; in experiment [8], 4.05 µM; in [9], above 100 µM.

`COc1cc(-c2nccc3cc(OC)c(OC)cc23)ccc1O`: the TGI in experiment [1], in experiment [2], in experiment [3], in experiment [4], in [5] and in experiment [7] was above 100 µM throughout. Moreover, the TGI in [8], in [9] and in experiment [10] was above 100 µM in each case.

As to `CCOC(=O)C(=O)Nc1nc2c(OCC)cccc2s1`, the TGI in [1], in experiment [2], in experiment [3], in experiment [4], in [5] and in experiment [6] was above 100 µM each time. Moreover, the TGI in [7], in experiment [8], in experiment [9] and in experiment [10] was above 100 µM in each case.

With `CN1CN(C2OC(CO)C(O)C2O)c2nc(N)[nH]c(=O)c21` (configuration not stated), the TGI in experiment [1], in experiment [2], in experiment [3], in experiment [4], in experiment [5] and in [6] was above 100 µM in each case. Further, the TGI in [7], in [8], in experiment [9] and in [10] was above 100 µM in each case.

Turning to `CN(C)CCCN(CCC1CCCCC1)CCC1CCCCC1`, the GI50 is 2.74 µM in experiment [1]; 6.06 µM in experiment [2]; 1 µM in experiment [3]; 0.591 µM in [4]; 2.7 µM in experiment [5]; 5.5 µM in [6]. For the same compound, the GI50 in experiment [7] is 1.68 µM; in experiment [8] it was 0.545 µM; in experiment [9], 5.63 µM; in [10] it was 1.67 µM. Also, the TGI in experiment [1] was found to be 9.16 µM; in experiment [2], 16.3 µM; in [3] it was 9.7 µM; in experiment [5], 7.97 µM; in experiment [6] it was 18 µM; in [7] it was 3.16 µM. For the same compound, the TGI was 2.14 µM in [8], 18.8 µM in [9] and 3.81 µM in experiment [10].

With `C=C(CO)CC(O)c1cc(OC)ccc1OC` (configuration not stated), the TGI in experiment [1], in [2], in experiment [3], in [4], in experiment [5] and in experiment [6] was above 100 µM each time. The TGI in [7], in experiment [8], in [9] and in experiment [10] was above 100 µM each time.

`CN(C)CCN1C(=O)c2cccc3cc([N+](=O)[O-])cc(c23)C1=O`: the TGI in [1] worked out at 8.1 µM; in experiment [2], 0.779 µM; in [3], 1.12 µM; in experiment [4], 26.5 µM; in experiment [5], 5.24 µM; in experiment [6], 3.12 µM. The TGI is 1.32 µM in experiment [7], 1.37 µM in experiment [8], 2.12 µM in [9] and 2 µM in experiment [10].

On to `CC(=O)Nc1cc2cc(N)ccc2oc1=O`, for which the TGI in experiment [1], in experiment [2], in [3], in experiment [4], in [5] and in experiment [6] was above 100 µM in each case. In addition, the TGI in experiment [7], in experiment [8], in experiment [9] and in experiment [10] was above 100 µM throughout.

Turning to `C=C1CC2(CC(c3ccccc3Cl)OC(c3ccccc3Cl)C2)OC1=O` (configuration not stated), the TGI in [1] is 4.66 µM; in experiment [2], 21.1 µM; in experiment [3], 4.65 µM; in experiment [4] it was above 25.3 µM; in experiment [5], 16.5 µM; in experiment [6], 5.62 µM. Also, the TGI in experiment [7] was found to be 4.27 µM; in experiment [8], 10.4 µM; in experiment [9], 29.5 µM; in experiment [10] it was 15.6 µM.

For `N#CC12CCC1C1CCCCC12N1CCSCC1` (configuration not stated), the TGI in experiment [1], in [2], in [3], in [4], in [7] and in [9] was above 100 µM in each case. The compound also gave a TGI in experiment [10] above 100 µM.

In the case of `N#Cc1c(NCc2ccccc2)nc(NCc2ccccc2)c(C#N)c1-c1ccc(O)cc1`, the GI50 in [1] was 23 µM; in experiment [2], 17.3 µM; in experiment [3], 0.316 µM; in [5], 60.3 µM; in [6] it was 27.3 µM; in experiment [7] it was 13.1 µM. For the same compound, the GI50 in [8] is 15.3 µM; in experiment [9], 50.5 µM; in experiment [10] it was 19.2 µM. The TGI in [1] is above 100 µM; in [2], 93 µM; in experiment [3] it was 7.96 µM; in [5], above 100 µM; in experiment [6], above 100 µM; in experiment [7], 37.4 µM. Moreover, the TGI was 34.3 µM in experiment [8], above 100 µM in experiment [9] and 54.5 µM in experiment [10].

As to `C[C@]12CCC(=O)C(OC(=O)c3ccc([N+](=O)[O-])cc3)=C1CCC2=O`, the TGI in experiment [1], in experiment [2], in experiment [3], in [5], in experiment [6] and in experiment [7] was above 100 µM each time. Also, the TGI in experiment [8], in experiment [9] and in [10] was above 100 µM throughout.

On to `Cc1n[nH]c(=S)n(C)c1=S`, for which the TGI in experiment [1], in experiment [2], in [3], in [4], in experiment [5] and in experiment [6] was above 100 µM throughout. The TGI in experiment [7], in experiment [9] and in experiment [10] was above 100 µM each time.

The values are drawn from PubChem BioAssay (NCI).
